# Literature values, collected in patent US6635280B2, “Extending the duration of drug release within the stomach during the fed mode” (DepoMed, Inc., priority 1997, dated 2003).
# Conditions: oral doses administered with or following a meal
smiles,measurement,value
Cc1c(O)cccc1C(=O)N[C@@H](CSc1ccccc1)[C@H](O)CN1C[C@H]2CCCC[C@H]2C[C@H]1C(=O)NC(C)(C)C [nelfinavir],"area under the plasma concentration-time curve, increase with or following a meal",two-fold to three-fold
same,"peak plasma concentration, increase with or following a meal",two-fold to three-fold
